Columns and labels:
Mus musculus [1] = test: Inhibition of IL1-induced circulating IL6 release in mouse at 0.1 mg/kg, po; format: functional
[2] = Toxicity in human skeletal muscle cells assessed as increase in glutamine synthase mRNA level after 18 hrs by PCR
[3] = Relative plasma concentration in mouse assessed as ratio of plasma concentration in mouse at 0.01 mg/kg, po to IC50 for NF-kappaB transrepression activity in A549 cells expressing MMTV reporter gene; format: ADME, organism-based; design: dose 0.01 mg/kg, route oral; details: in vivo
Mus musculus [4] = test: Inhibition of IL1-induced circulating IL6 release in mouse at 10 mg/kg, po; format: functional
[5] = Antiinflammatory activity in human primary synovial fibroblasts assessed as inhibition of IL1-induced IL6 release after 18 hrs by MSD technology; format: functional
[6] = Antiinflammatory activity in human primary synovial fibroblasts assessed as inhibition of IL1-induced MMP1 release after 18 hrs by MSD technology; format: functional
[7] = Plasma concentration in mouse bearing mouse NIH-3T3 cells integrated with MMTV reporter gene at 10 mg/kg, po after 1 hr; format: ADME, organism-based, NIH3T3; design: dose 10 mg/kg, route oral
[8] = Plasma concentration in mouse bearing mouse NIH-3T3 cells integrated with MMTV reporter gene at 0.01 mg/kg, po after 1 hr; format: ADME, organism-based, NIH3T3; design: dose 0.01 mg/kg, route oral
[9] = Plasma concentration in mouse bearing mouse NIH-3T3 cells integrated with MMTV reporter gene at 1 mg/kg, po after 1 hr; format: ADME, organism-based, NIH3T3; design: dose 1 mg/kg, route oral
Mus musculus [10] = test: Inhibition of IL1-induced circulating IL6 release in mouse at 1 mg/kg, po; format: functional
[11] = Relative fraction unbound in mouse assessed as ratio of fraction unbound in mouse at 10 mg/kg, po to IC50 for NF-kappaB transrepression activity in A549 cells expressing MMTV reporter gene; format: ADME, organism-based; design: dose 10 mg/kg, route oral; details: in vivo
[12] = Relative fraction unbound in mouse assessed as ratio of fraction unbound in mouse at 0.1 mg/kg, po to IC50 for NF-kappaB transrepression activity in A549 cells expressing MMTV reporter gene; format: ADME, organism-based; design: dose 0.1 mg/kg, route oral; details: in vivo
[13] = Antiinflammatory activity in human primary synovial fibroblasts assessed as inhibition of IL1-induced IL8 release after 18 hrs by MSD technology; format: functional
[14] = Relative plasma concentration in mouse assessed as ratio of plasma concentration in mouse at 10 mg/kg, po to IC50 for NF-kappaB transrepression activity in A549 cells expressing MMTV reporter gene; format: ADME, organism-based; design: dose 10 mg/kg, route oral; details: in vivo
[15] = Relative plasma concentration in mouse assessed as ratio of plasma concentration in mouse at 1 mg/kg, po to IC50 for NF-kappaB transrepression activity in A549 cells expressing MMTV reporter gene; format: ADME, organism-based; design: dose 1 mg/kg, route oral; details: in vivo
[16] = Relative fraction unbound in mouse assessed as ratio of fraction unbound in mouse at 0.01 mg/kg, po to IC50 for NF-kappaB transrepression activity in A549 cells expressing MMTV reporter gene; format: ADME, organism-based; design: dose 0.01 mg/kg, route oral; details: in vivo
[17] = Relative plasma concentration in mouse assessed as ratio of plasma concentration in mouse at 0.1 mg/kg, po to IC50 for NF-kappaB transrepression activity in A549 cells expressing MMTV reporter gene; format: ADME, organism-based; design: dose 0.1 mg/kg, route oral; details: in vivo
Mus musculus [18] = test: Inhibition of IL1-induced circulating IL6 release in mouse at 0.01 mg/kg, po; format: functional
[19] = Plasma concentration in mouse bearing mouse NIH-3T3 cells integrated with MMTV reporter gene at 0.1 mg/kg, po after 1 hr; format: ADME, organism-based, NIH3T3; design: dose 0.1 mg/kg, route oral
[20] = Relative fraction unbound in mouse assessed as ratio of fraction unbound in mouse at 1 mg/kg, po to IC50 for NF-kappaB transrepression activity in A549 cells expressing MMTV reporter gene; format: ADME, organism-based; design: dose 1 mg/kg, route oral; details: in vivo
Hepatocyte = test: Toxicity in human hepatocytes assessed as increase in PEPCK mRNA level after 18 hrs by PCR; format: cell-based

C[C@@H]1C[C@H]2[C@@H]3CCC4=CC(=O)C=C[C@]4(C)[C@@]3(F)[C@@H](O)C[C@]2(C)[C@@]1(O)C(=O)CO [DEXAMETHASONE]
inhibition in vivo at 0.1 mg/kg (Mus musculus [1]): 67% | Activity [2]: Toxic | fold change (FC) [3]: 7 | inhibition in vivo at 10 mg/kg (Mus musculus [4]): 83% | IC50 [5]: 0.631 nM | IC50 [6]: 0.316 nM | concentration at 1 h [7]: 17700 nM | concentration at 1 h [8]: 44 nM | concentration at 1 h [9]: 1800 nM | inhibition in vivo at 1 mg/kg (Mus musculus [10]): 88% | fold change (FC) [11]: 870 | fold change (FC) [12]: 8 | IC50 [13]: 0.501 nM | fold change (FC) [14]: 2944 | fold change (FC) [15]: 300 | fold change (FC) [16]: 0.4 | fold change (FC) [17]: 40 | inhibition in vivo at 0.01 mg/kg (Mus musculus [18]): 24% | concentration at 1 h [19]: 236 nM | fold change (FC) [20]: 86 | Activity (Hepatocyte): Toxic
